The record followed here is patent US20240101551A1, “CRYSTAL FORM AND SALT FORM OF BROMINE DOMAIN PROTEIN INHIBITOR AND PREPARATION METHOD THEREFOR” (CHIA TAI TIANQING PHARMACEUTICAL GROUP CO., LTD., priority 2020, published 2024).

Data set [1] addresses BRD4 (BD1) (Homo sapiens (Human), UniProt O60885). Put plainly: In vitro enzymatic activity assay on BRD4 (BD1), HTRF. The format is binding. The conditions noted are these: GST-BRD4 (BD1, 44-168 aa). Here is the method: In the present application, the IC50 value of the compound of formula (I) in inhibiting BRD4 (BD1) enzyme binding reaction were determined by homogeneous time resolved fluorescence (HTRF). The compound of formula (I) was serially diluted 5-fold with 100% DMSO starting from 0.2 mM (7 concentrations in total), and then 2 μL of the compound of formula (I) at each concentration was added to 48 μL of a reaction buffer (20 mM HEPES pH 7.5, 150 mM NaCl, 5 mM DTT, 0.005% Tween 20, and 100 μg/mL BSA) for dilution, and mixed well. 2.5 μL of the resulting mixture was added to a 384-well plate (OptiPlate-384, purchased from PerkinElmer), then 5 μL of GST-BRD4 (BD1, 44-168 aa) (final concentration: 1 nM) was added, and the resulting mixture was centrifuged, and fully mixed. […] After being incubated in the incubator for another 1 hour, the fluorescence values (excited at 320 nm, emitted light at 665 nm and 620 nm being detected, and the ratio of the two being the enzyme binding signal) were read on Envision (purchased from PerkinElmer). The binding strength of the compound of formula (I) to BRD4 (BD1) protein was determined respectively at 7 concentrations, and the data were calculated using GraphPad Prism software to obtain the ICso value of the compound of formula (I).

The target in data set [2] is BRD4 (BD2) (Homo sapiens (Human), UniProt O60885). As to the kind of experiment: In vitro enzymatic activity assay on BRD4 (BD2), HTRF. The format is binding. The conditions noted are these: GST-BRD4 (BD2, 349-460 aa). On the procedure:
In the present application, the IC50 value of the compound of formula (I) in inhibiting BRD4 (BD2) enzyme binding reaction were determined by homogeneous time resolved fluorescence (HTRF). The compound of formula (I) was serially diluted 5-fold with 100% DMSO starting from 1 mM (7 concentrations in total), and then 2 μL of the compound of formula (I) at each concentration was added to 18 μL of a reaction buffer (20 mM HEPES pH 7.5, 150 mM NaCl, 5 mM DTT, 0.005% Tween 20, and 100 μg/mL BSA) for dilution. After being mixed well, 2 μL of the compound of formula (I) at each concentration was added to 48 μL of the above reaction buffer for dilution, and mixed well (final concentration of the compound of formula (I) in DMSO: 0.1%). […] After being incubated in the incubator for another 1 hour, the fluorescence values (excited at 320 nm, emitted light at 665 nm and 620 nm being detected, and the ratio of the two being the enzyme binding signal) were read on Envision (purchased from PerkinElmer). The binding strength of the compound of formula (I) to BRD4 (BD2) protein was determined respectively at 7 concentrations, and the data were calculated using GraphPad Prism software to obtain the IC50 value of the compound of formula (I).
Background: In TR-FRET formats the signal depends on donor and acceptor labels being close together.

Data set [3] can be described thus: Animal pharmacokinetic study. The format is in vivo, rats. On the procedure: Three healthy adult male rats that obtained from Beijing Vital River Laboratory Animal Technology Co., Ltd were used for the animal pharmacokinetic experiment. The compound of formula (I) was suspended in 2% absolute ethanol, 5% tween 80, 20% polyethylene glycol 400, and 73% (5% hydroxypropylmethyl cellulose in water) (V/V/V/V) at a concentration of 1 mg/mL. The administration volume was 5 mL/kg, and animals were treated with a single intragastric administration at a dose of 5 mg/kg Animals were fasted overnight prior to the experiment, and the fasting time was from 10 hours before administration to 4 hours after administration. Blood was sampled at 0.25, 0.5, 1, 2, 4, 6, 8 and 24 hours after administration Animals were lightly anesthetized with isoflurane, and approximately 0.4 mL of whole blood was collected from the orbital venous plexus using a glass blood collection tube, and placed in a heparin anticoagulation tube. The sample was centrifuged at 4200 rpm for 5 minutes at 4° C., and then the plasma was transferred to a centrifuge tube and stored at −80° C. until analyzed. In the plasma sample analysis, test compound and internal standard (warfarin or propranolol) were extracted from rat plasma by acetonitrile protein precipitation, and the extracts were analyzed by LC/MS/MS. The measured plasma concentration-time data of the individual animals were analyzed using a non-compartmental model of WinNonlin (version no. 5.2.1; Pharsight) software to give pharmacokinetic parameters as shown in Table 17 below: the maximum (peak) plasma drug concentration C,max; the time to peak Tmax; the half-life T1/2 and the area under the plasma concentration-time curve extrapolated to infinity AUC0-inf.

The nature of data set [4]: Study on stability under influencing factors (high temperature, high humidity, light) of the crystal forms. The data set is classed as physicochemical. Here is the method: In order to evaluate the solid stability of the crystal forms of the present application, the stability of each of the crystal form I, the crystal form A, the crystal form D, the crystal form E and the crystal form F under influencing factors (high temperature, high humidity and light) was investigated. Each of the crystal forms was stored under the high temperature condition (60±2° C., open (weighing bottle)), and the high humidity condition (room temperature, 92.5%±5% RH, open (weighing bottle) and packaged) for 5 days, 10 days and 30 days, and under the ICH light condition (5500 Lux, 0.9 w/m^2, closed (weighing bottle) and packaged) for 5 days and 10 days. The inner packaging material of the packaged sample was a medical low-density polyethylene bag, and the outer packaging material is a medical polyester/aluminum/polyethylene composite bag. The samples after the storage were characterized by properties, purity (HPLC), crystal form (XRD) and water content to detect the changes in the crystal form and purity. The results are shown in Tables 8-12 (“^#” indicates the ICH condition).

[5] abbreviates: rat, po, male rats, single intragastric administration, 5 mg/kg, plasma.
[6] abbreviates: Light (ICH, 5500 Lux), closed, 5 days.
Setting [7] is: Light (ICH, 5500 Lux), closed, 10 days.
[8] abbreviates: 92.5% RH, room temperature, open, 10 days.
[9] abbreviates: 92.5% RH, room temperature, open, 30 days.

As usually defined, the IC50 is the midpoint of a concentration-inhibition curve. The low end stands for higher potency, the high end for lower potency. The term AUC(0-inf) denotes the area under the concentration-time curve extrapolated to infinity. In general, Cmax refers to the peak of the concentration-time curve. Usually Tmax stands for the time from dosing to the highest level. As usually defined, the half-life is the time needed for the level to fall by half in the phase considered. A higher half-life goes with slow loss.

SMILES strings stand for the structures.

`Cn1cc(-c2nc(N=S(C)(C)=O)ccc2Oc2ccc(F)cc2F)c2cc[nH]c2c1=O` [Compound of formula (I), 4-{3-(2,4-difluorophenoxy)-6-{[dimethyl(oxo)-λ^6-sulfaneylidene]amino}-pyridin-2-yl}-6-methyl-1,6-dihydro-7H-pyrrolo[2,3-c]pyridin-7-one] registered an IC50 in data set [1] of 640 pM. In data set [2], this molecule displayed a half-maximal inhibitory concentration (IC50) of 250 pM. In addition, in data set [3] (setting [5]), the AUC(0-inf) came out at 3470 ng·h/mL, the Cmax is 372 ng/mL, the Tmax was determined as 2.67 h and the half-life was 5.25 h. In data set [3] (rats, 5 mg/kg intragastric), the “Pharmacokinetic properties (conclusion)” value is “good pharmacokinetic properties”.
In the case of `Cn1cc(-c2nc(N=S(C)(C)=O)ccc2Oc2ccc(F)cc2F)c2cc[nH]c2c1=O` [crystal form A], the Crystal form change result in data set [4] (Light (ICH), packaged, 10 days) is reported as “Unchanged”; in data set [4] (setting [7]), “Unchanged”. Further, the Impurity content was found to be 1.32% in data set [4] (Light (ICH), packaged, 10 days); 1.32% in data set [4] (setting [6]); 1.35% in data set [4] (setting [7]); 1.30% in data set [4] (starting crystal form). Also, the Water content in data set [4] (Light (ICH), packaged, 10 days) came to 6.6%; in data set [4] (setting [7]) it was 8.1%; in data set [4] (starting crystal form), 5.8%.
For `Cn1cc(-c2nc(N=S(C)(C)=O)ccc2Oc2ccc(F)cc2F)c2cc[nH]c2c1=O` [crystal form D], the Impurity content in data set [4] (60° C., open, 5 days) turned out to be 0.19%; in data set [4] (60° C., open, 10 days), 0.27%; in data set [4] (60° C., open, 30 days), 0.44%; in data set [4] (92.5% RH, packaged, 30 days) it was 0.12%; in data set [4] (92.5% RH, room temperature, open, 5 days), 0.07%; in data set [4] (setting [8]), 0.06%. Also, the Impurity content is reported as 0.07% in data set [4] (setting [9]); 0.08% in data set [4] (Light (ICH), packaged, 10 days); 0.11% in data set [4] (setting [6]); 0.09% in data set [4] (setting [7]); 0.05% in data set [4] (starting crystal form). Besides, the Crystal form change result in data set [4] (60° C., open, 10 days) is recorded as “Unchanged”; in data set [4] (60° C., open, 30 days) it was “Unchanged”; in data set [4] (92.5% RH, packaged, 30 days), “Unchanged”; in data set [4] (setting [8]) it was “Unchanged”; in data set [4] (setting [9]) it was “Unchanged”; in data set [4] (Light (ICH), packaged, 10 days), “Unchanged”. Moreover, the Crystal form change result in data set [4] (setting [7]) was “Unchanged”. In addition, the Water content in data set [4] (60° C., open, 10 days) is 1.0%; in data set [4] (60° C., open, 30 days), 0.68%; in data set [4] (92.5% RH, packaged, 30 days) it was 1.0%; in data set [4] (setting [8]), 2.0%; in data set [4] (setting [9]), 1.9%; in data set [4] (Light (ICH), packaged, 10 days) it was 1.2%. Further, the Water content in data set [4] (setting [7]) was determined as 1.1%; in data set [4] (starting crystal form), 1.4%.
On to `Cn1cc(-c2nc(N=S(C)(C)=O)ccc2Oc2ccc(F)cc2F)c2cc[nH]c2c1=O` [crystal form E], for which the Impurity content in data set [4] (60° C., open, 5 days) came to 0.20%; in data set [4] (60° C., open, 10 days) it was 0.21%; in data set [4] (60° C., open, 30 days), 0.21%; in data set [4] (starting crystal form), 0.18%. For the same molecule, the Crystal form change entry in data set [4] (60° C., open, 10 days) is given as “Unchanged”; in data set [4] (60° C., open, 30 days), “Unchanged”.
In the case of `Cn1cc(-c2nc(N=S(C)(C)=O)ccc2Oc2ccc(F)cc2F)c2cc[nH]c2c1=O` [crystal form F], the Impurity content in data set [4] (60° C., open, 5 days) is listed as 0.18%; in data set [4] (60° C., open, 10 days) it was 0.20%; in data set [4] (60° C., open, 30 days), 0.22%; in data set [4] (starting crystal form), 0.17%. Also, the Crystal form change entry in data set [4] (60° C., open, 10 days) is given as “Unchanged”; in data set [4] (60° C., open, 30 days), “Unchanged”.
